Values of other authors in patent publication US12208072B2, “Compositions for removing necrotic or infected tissues from body surface lesions and from oral cavity” (DEBx Medical Holding B.V., priority 2019, dated 2025).

Assays:
[1] = for Ka1: first dissociation constant; for Ka2: second dissociation constant
[2] = 25° C.

Molecule	Ka1 [1]	Ka2 [1]	pKa [2]
O=C(O)CCC(=O)O [Succinic]	6.21 × 10^−5	2.31 × 10^−6	–
OP(O)O [Phosphorous]	3 × 10^−2	1.62 × 10^−7	–
O=[N+]([O-])O [Nitric]	–	–	−1.4
OB(O)O [Boric]	5.81 × 10^−10	–	–
O=C(O)CC(O)C(=O)O (stereo not drawn) [Malic]	3.48 × 10^−4	8.00 × 10^−6	–
OCl [Hypochlorous]	3.0 × 10^−8	–	–
O=C(O)O [Carbonic]	4.44 × 10^−7	4.69 × 10^−11	–
Anilinium ion	2.50 × 10^−5	–	–
